Data taken from patent US8106055B2, “Substituted amide compounds” (Gruenenthal GmbH, priority 2007, dated 2012).
Where two headings read alike, the source gives them in different places.

Tests used:
[1] = target: T1, human bradykinin 1 receptor (B1R) (Homo sapiens, UniProt P46663); assay: Functional investigation on the human bradykinin 1 receptor (B1R), Ca2+ FLIPR assay in CHO K1 hB1R cells; assay type: cell-based
T1 construct: expressed in transfected cells; host or cells: CHO K1 cells
T1 sequence (P46663 1-353): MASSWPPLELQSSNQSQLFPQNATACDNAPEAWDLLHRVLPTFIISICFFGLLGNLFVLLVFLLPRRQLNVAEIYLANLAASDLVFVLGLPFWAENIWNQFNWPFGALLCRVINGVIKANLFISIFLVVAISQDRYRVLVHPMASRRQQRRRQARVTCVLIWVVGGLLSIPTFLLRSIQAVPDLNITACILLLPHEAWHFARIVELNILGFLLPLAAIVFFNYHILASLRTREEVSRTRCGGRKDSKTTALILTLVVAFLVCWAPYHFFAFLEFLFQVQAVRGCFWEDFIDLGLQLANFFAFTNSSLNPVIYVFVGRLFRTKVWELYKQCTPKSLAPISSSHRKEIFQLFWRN
Summary of the method: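 Cells were dye-loaded with Fluo-4 plus probenecid, then test substances added and Ca2+ influx compared with agonist control for % activation. After 10-20 min, EC80 agonist (Lys-Des-Arg9-bradykinin human; Des-Arg9-bradykinin rat) was applied; suppression gave % inhibition and IC50 values.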

[2] = target: T2, serotonin (5-HT) reuptake (Rattus norvegicus, UniProt P31652); assay: Inhibition of serotonin (5HT) reuptake in synaptosomes from rat brain; assay type: biochemical; conditions: test concentration of 10 μM; read-out: 5-HT (inhibition of reuptake of serotonin, % inhibition)
T2 construct: synaptosomes are freshly isolated from areas of the rat brain; from tissue; host or cells: rat brain synaptosomes (P2 fraction)
T2 sequence (P31652 whole entry): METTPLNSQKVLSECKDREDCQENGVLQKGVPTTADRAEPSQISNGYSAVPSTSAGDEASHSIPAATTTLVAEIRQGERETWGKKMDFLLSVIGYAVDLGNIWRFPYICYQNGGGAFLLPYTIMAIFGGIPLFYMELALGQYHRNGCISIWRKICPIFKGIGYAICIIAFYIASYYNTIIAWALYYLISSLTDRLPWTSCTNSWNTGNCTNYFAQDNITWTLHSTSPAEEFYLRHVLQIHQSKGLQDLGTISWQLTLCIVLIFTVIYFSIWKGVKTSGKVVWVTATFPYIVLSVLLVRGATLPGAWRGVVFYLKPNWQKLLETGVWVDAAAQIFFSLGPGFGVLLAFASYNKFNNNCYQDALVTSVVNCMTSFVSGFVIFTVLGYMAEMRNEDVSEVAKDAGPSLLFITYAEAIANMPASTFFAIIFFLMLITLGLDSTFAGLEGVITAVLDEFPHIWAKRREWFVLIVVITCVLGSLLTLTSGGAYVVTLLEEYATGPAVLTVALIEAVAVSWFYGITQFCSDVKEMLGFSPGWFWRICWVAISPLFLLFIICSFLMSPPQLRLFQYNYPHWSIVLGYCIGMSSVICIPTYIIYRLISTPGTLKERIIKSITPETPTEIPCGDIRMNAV
Summary of the method: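 Freshly isolated rat brain synaptosomes (P2 fraction) used for 5-HT reuptake. Test compound at 10 μM, activity given as % inhibition.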

[3] = CHO-K1, B1R antagonism human, test substance 10 μM, Ca2+ FLIPR, CHO K1 hB1R cells, read-out: B1R Ant. h [10 μM] % Inhibition

Row | Structure (SMILES) | inhibition at 10 µM [1, 3] [%] | inhibition at 10 µM [2] [%] | inhibition at 10 µM ([1]; CHO-K1, read-out: B1R Ant. h [10 μM] % Inhibition) [%]
1 | COc1cc(C)c(S(=O)(=O)N2CCC(OCC(=O)NCCC3CCC(C(c4cccs4)N(C)C)CC3)CC2)c(C)c1C (stereo not drawn) [Example 177, N-(2-(4-((dimethylamino)(thiophen-2-yl)methyl)cyclohexyl)ethyl)-2-(1-(4-methoxy-2,3,6-trimethylphenylsulfonyl)piperidin-4-yloxy)acetamide] | 10 | 93 | –
2 | COc1cc(C)c(S(=O)(=O)N2CCC(CCOCC(=O)NC3CCC(C(c4ccc(F)cc4)N(C)C)CC3)CC2)c(C)c1C (stereo not drawn) [Example 178, N-(4-((dimethylamino)(4-fluorophenyl)methyl)cyclohexyl)-2-(2-(1-(4-methoxy-2,3,6-trimethylphenylsulfonyl)piperidin-4-yl)ethoxy)acetamide] | 24 | 94 | –
3 | COc1ccc(S(=O)(=O)N2CCCCC2COCC(=O)NCC2CCC(C(c3cccc(F)c3)N(C)C)CC2)cc1 (stereo not drawn) [Example 179, N-((4-((dimethylamino)(3-fluorophenyl)methyl)cyclohexyl)methyl)-2-((1-(4-methoxyphenylsulfonyl)piperidin-2-yl)methoxy)acetamide] | 65 | 92 | –
4 | COc1ccc(S(=O)(=O)N2CCCCC2COCC(=O)NCCC2CCC(C(c3cccc(F)c3)N(C)C)CC2)cc1 (stereo not drawn) [Example 180, N-(2-(4-((dimethylamino)(3-fluorophenyl)methyl)cyclohexyl)ethyl)-2-((1-(4-methoxyphenylsulfonyl)piperidin-2-yl)methoxy)acetamide] | 62 | 93 | –
5 | COc1ccc(S(=O)(=O)N2CCCC2COCC(=O)NC2CCC(C(c3ccccc3)N(C)C)CC2)cc1 (stereo not drawn) [Example 182, N-(4-((dimethylamino)(phenyl)methyl)cyclohexyl)-2-((1-(4-methoxyphenylsulfonyl)pyrrolidin-2-yl)methoxy)acetamide] | 9 | 85 | –
6 | COc1cc(C)c(S(=O)(=O)N(C)CCOCC(=O)NCCC2CCC(C(c3cccc(F)c3)N(C)C)CC2)c(C)c1C (stereo not drawn) [Example 183, N-(2-(4-((dimethylamino)(3-fluorophenyl)methyl)cyclohexyl)ethyl)-2-(2-(4-methoxy-N,2,3,6-tetramethylphenylsulfonamido)ethoxy)acetamide] | 104 | 93 | –
7 | COc1ccc(S(=O)(=O)N2CCC(OCC(=O)NCC3CCC(C(c4cccc(F)c4)N(C)C)CC3)C2)cc1OC (stereo not drawn) [Example 184, 2-(1-(3,4-dimethoxyphenylsulfonyl)pyrrolidin-3-yloxy)-N-((4-((dimethylamino)(3-fluorophenyl)methyl)cyclohexyl)methyl)acetamide] | -29 | 88 | –
8 | Cc1ccc(S(=O)(=O)N2CCC(OCC(=O)NCC3CCC(C(c4cccc(F)c4)N(C)C)CC3)C2)cc1 (stereo not drawn) [Example 185, N-((4-((dimethylamino)(3-fluorophenyl)methyl)cyclohexyl)methyl)-2-(1-tosylpyrrolidin-3-yloxy)acetamide] | 9 | 102 | –
9 | CN(C)C(c1cccc(F)c1)C1CCC(CCNC(=O)COCCN(C)S(=O)(=O)c2ccc(Cl)cc2)CC1 (stereo not drawn) [Example 186, 2-(2-(4-chloro-N-methylphenylsulfonamido)ethoxy)-N-(2-(4-((dimethylamino)(3-fluorophenyl)methyl)cyclohexyl)ethyl)acetamide] | 23 | 88 | –
10 | CN(C)C(c1cccc(F)c1)C1CCC(CNC(=O)COCCN(C)S(=O)(=O)c2c(Cl)cc(Cl)cc2Cl)CC1 (stereo not drawn) [Example 188, N-((4-((dimethylamino)(3-fluorophenyl)methyl)cyclohexyl)methyl)-2-(2-(2,4,6-trichloro-N-methylphenylsulfonamido)ethoxy)acetamide] | 102 | 98 | –
11 | COc1cc(C)c(S(=O)(=O)N2CCC(OCC(=O)NC3CCC(C(c4cccc(F)c4)N(C)C)CC3)C2)c(C)c1C (stereo not drawn) [Example 189, N-(4-((dimethylamino)(3-fluorophenyl)methyl)cyclohexyl)-2-(1-(4-methoxy-2,3,6-trimethylphenylsulfonyl)pyrrolidin-3-yloxy)acetamide] | 47 | 96 | –
12 | COc1ccc(S(=O)(=O)N2Cc3ccccc3CC2COCC(=O)NCCC2CCC(C(c3cccc(F)c3)N(C)C)CC2)cc1 (stereo not drawn) [Example 190, N-(2-(4-((dimethylamino) (3-fluorophenyl)methyl)cyclohexyl)ethyl)-2-((2-(4-methoxyphenylsulfonyl)-1,2,3,4-tetrahydroisoquinolin-3-yl)methoxy)acetamide] | 29 | 79 | –
13 | COc1ccc(S(=O)(=O)N2CCCCC2COCC(=O)NCCC2CCC(C(c3cccc(F)c3)N(C)C)CC2)cc1OC (stereo not drawn) [Example 191, 2-((1-(3,4-dimethoxyphenylsulfonyl)piperidin-2-yl)methoxy)-N-(2-(4-((dimethylamino)(3-fluorophenyl)methyl)cyclohexyl)ethyl)acetamide] | -16 | 89 | –
14 | CN(C)C(c1cccc(F)c1)C1CCC(CCNC(=O)COCCN(C)S(=O)(=O)c2cccc(C(F)(F)F)c2)CC1 (stereo not drawn) [Example 192, N-(2-(4-((dimethylamino)(3-fluorophenyl)methyl)cyclohexyl)ethyl)-2-(2-(N-methyl-3-(trifluoromethyl)phenylsulfonamido)ethoxy)acetamide] | 30 | 94 | –
15 | COc1cc(C)c(S(=O)(=O)N(CCOCC(=O)NC2CCC(C(c3ccccc3)N(C)C)CC2)Cc2ccccc2)c(C)c1C (stereo not drawn) [Example 193, 2-(2-(N-benzyl-4-methoxy-2,3,6-trimethylphenylsulfonamido)ethoxy)-N-(4-((dimethylamino) (phenyl)methyl)cyclohexyl)acetamide] | 97 | 92 | –
16 | CN(C)C(c1cccs1)C1CCC(NC(=O)COC2CCN(S(=O)(=O)c3ccccc3)C2)CC1 (stereo not drawn) [Example 194, N-(4-((dimethylamino)(thiophen-2-yl)methyl)cyclohexyl)-2-(1-(phenylsulfonyl)pyrrolidin-3-yloxy)acetamide] | -17 | 86 | –
17 | CN(C)C(c1ccccc1)C1CCC(CNC(=O)COC2CCN(S(=O)(=O)c3ccccc3)C2)CC1 (stereo not drawn) [Example 195, N-((4-((dimethylamino)(phenyl)methyl)cyclohexyl)methyl)-2-(1-(phenylsulfonyl)pyrrolidin-3-yloxy)acetamide] | – | 101 | -13
18 | CN(C)C(c1cccc(F)c1)C1CCC(NC(=O)COCCN(C)S(=O)(=O)c2ccc(Cl)cc2)CC1 (stereo not drawn) [Example 196, 2-(2-(4-chloro-N-methylphenylsulfonamido)ethoxy)-N-(4-((dimethylamino)(3-fluorophenyl)methyl)cyclohexyl)acetamide] | 6 | 92 | –
19 | COc1cc(C)c(S(=O)(=O)N(C)CCOCC(=O)NCCC2CCC(C(c3cccc(F)c3)N(C)C)CC2)c(C)c1 (stereo not drawn) [Example 197, N-(2-(4-((dimethylamino)(3-fluorophenyl)methyl)cyclohexyl)ethyl)-2-(2-(4-methoxy-N,2,6-trimethylphenylsulfonamido)ethoxy)acetamide] | 104 | 85 | –
20 | COc1cc(C)c(S(=O)(=O)N2CCC(OCC(=O)NCCC3CCC(C(c4cccs4)N(C)C)CC3)C2)c(C)c1 (stereo not drawn) [Example 199, N-(2-(4-((dimethylamino)(thiophen-2-yl)methyl)cyclohexyl)ethyl)-2-(1-(4-methoxy-2,6-dimethylphenylsulfonyl)pyrrolidin-3-yloxy)acetamide] | 104 | 96 | –
21 | COc1cc(C)c(S(=O)(=O)N2CCN(CCOCC(=O)NCCC3CCC(C(c4cccc(F)c4)N(C)C)CC3)CC2)c(C)c1C (stereo not drawn) [Example 200, N-(2-(4-((dimethylamino)(3-fluorophenyl)methyl)cyclohexyl)ethyl)-2-(2-(4-(4-methoxy-2,3,6-trimethylphenylsulfonyl)piperazin-1-yl)ethoxy)acetamide] | 73 | 95 | –
